Measured values as given in patent publication US20230312556A1, “ARYLAMIDE COMPOUND, PHARMACEUTICAL COMPOSITION COMPRISING SAME, AND PREPARATION METHOD THEREFOR AND USE THEREOF” (SICHUAN KELUN-BIOTECH BIOPHARMACEUTICAL CO., LTD., priority 2020, published 2023).

How the values were obtained:
[1] = Pharmacokinetic test in Balb/c mice; type: in vivo
Procedure: The compounds were administered to female Balb/c mice by gavage (PO) to investigate the pharmacokinetic profile.
Compound 1 of the present invention and HM95573 (prepared according to Example 116 in CN104039798B) were administered via PO; the administration dosage was 10 mg/kg, and the administration vehicle was a 20% aqueous solution of hydroxypropyl-β-cyclodextrin. Blood samples were collected before the administration (0 h) and at 0.25, 0.5, 1, 2, 4, 6, 8, 24, 48, and 72 h after the administration; 50-70 μL of blood was drawn from the orbit and spotted on Whatman 903 card, which was air-dried at room temperature for testing. After the testing, the samples were placed in a sealed dry box and stored at −80° C. (DBS samples). The DBS samples were punched with a 6 mm punch, then 80 μL of 50% acetonitrile-water was added and shaken (800 rpm, 10 min), followed by sonication for 10 min, then 350 μL of acetonitrile containing internal standard was added and shaken (700 rpm, 10 min). After sonication for 10 min, the samples were centrifuged at 4000 rpm and 4° C. for 10 min, and the supernatant was collected for LC-MS/MS analysis. The pharmacokinetic parameters were calculated using the WinNonlin 6.3 software and employing a non-compartmental model, and the results are shown in Table 6.

[2] = Pharmacokinetic test in Beagle dogs; type: in vivo
Procedure: The compounds were administered to male Beagle dogs by gavage (PO) to investigate the pharmacokinetic profile.
Compound 1 of the present invention and HM95573 were administered via PO; the administration dosage was 2.5 mg/kg, and the solvent was a 20% aqueous solution of hydroxypropyl-β-cyclodextrin. Blood samples were collected before the administration (0 h) and at 0.25, 0.5, 1, 2, 4, 6, 8, 24, 48, and 72 hours after the administration, and 1 mL blood was collected from the limbs vein and placed in a K2-EDTA anticoagulation tube. After centrifugation at 4000 rpm for 5 min (4° C.), the plasma was separated and stored at −80° C. for testing. The plasma samples were processed by precipitating proteins, and then subjected to LC-MS/MS analysis. The pharmacokinetic parameters were calculated using the WinNonlin 6.3 software and employing a non-compartmental model, and the results are shown in Table 7.

wild-type BRAF enzyme = wild-type BRAF enzyme (Homo sapiens (Human), UniProt P15056); test: RAF inhibition assay (TB-PMAP2K1 kit), wild-type BRAF; type: biochemical; conditions: FLUORESCEIN-MAP2K1 substrate, 60 min reaction
Procedure: Assay protocol: the inhibitory effects of the compounds of the present invention on the wild-type BRAF enzyme, mutant CRAF enzyme (RAF1 Y340D and Y341D) and mutant BRAF enzyme (BRAF-V600E) activity were determined according to the instructions of the TB-PMAP2K1 (PSER217/221) kit (ThermoFisher). Different RAF enzymes and substrates (FLUORESCEIN-MAP2K1) were pre-incubated with test compounds at various concentrations at room temperature for 15 min, and then the adenosine triphosphate (ATP) was added to initiate the reaction. After incubation at room temperature for 60 min, EDTA and Tb-labeled anti-pMAP2K1 [pS217/221] antibody solutions were added, and incubation was performed at room temperature for 60 min before the detection of the fluorescence values of the compounds in each group. With the vehicle group (DMSO) as the negative control and the buffer group (without RAF enzyme) as the blank control, the relative inhibitory activity percentage (i.e., the inhibition rate) of a compound at different concentrations was calculated according to the following formula:
Relative inhibitory activity percentage=1−(Compound group at various concentrations−blank control)/(negative control−blank control)*100%
The relative inhibitory activity percentages of the compounds at different concentrations were plotted against the compound concentrations, the curve was fitted according to a four-parameter model, and the IC50 value was calculated according to the following formula:
y=min+(max−min)/(1+(x/IC50)^(−Hillslope))
wherein y is the relative inhibitory activity percentage, max and min are respectively the maximum and minimum values of the fitted curve, x is the logarithm concentration of the compound, and Hillslope is the slope of the curve.

[3] = system: human hepatocellular carcinoma cell HepG2 (NRAS-Q61K mutation); test: Cancer cell proliferation inhibition assay, HepG2; type: cell-based; conditions: 72 h incubation, Cell Titer Glo
Description: (§1) The inhibitory effects of the compounds of the present invention on cancer cell proliferation were further evaluated by testing the effects of the compounds of the present invention on the growth of cancer cells.
(§2) In this example, human melanoma cell A375 (BRAF-V600E mutation, purchased from the Cell Bank of the Chinese Academy of Sciences) and human hepatocellular carcinoma cell HepG2 (NRAS-Q61K mutation, purchased from ATCC, USA) were employed.
(§3) In this example, the test compounds at various concentrations (100000 nM, 30000 nM, 10000 nM, 3000 nM, 1000 nM, 300 nM, 100 nM, 30 nM, 10 nM) were added to the above cells, and the incubation was performed for 72 h. The inhibitory activity of the compounds was tested by measuring ATP in living cells using the Cell Titer Glo Kit (Promega).
(§4) The IC50 values of the compounds of the present invention for each tested cell were determined, and the test results are as follows: […]

[4] = system: human melanoma cell A375 (BRAF-V600E mutation); test: Cancer cell proliferation inhibition assay, A375; type: cell-based; conditions: A-375, 72 h incubation, Cell Titer Glo
Description: as §1, §2, §3, §4

[5] = female Balb/c mice, PO, 10 mg/kg, DBS samples
[6] = male Beagle dogs, PO, 2.5 mg/kg, plasma
[7] = mouse, whole blood (dried blood spots), female Balb/c mice, PO, 10 mg/kg, DBS samples
[8] = dog, male Beagle dogs, PO, 2.5 mg/kg, plasma

Sequence of wild-type BRAF enzyme (P15056 whole entry): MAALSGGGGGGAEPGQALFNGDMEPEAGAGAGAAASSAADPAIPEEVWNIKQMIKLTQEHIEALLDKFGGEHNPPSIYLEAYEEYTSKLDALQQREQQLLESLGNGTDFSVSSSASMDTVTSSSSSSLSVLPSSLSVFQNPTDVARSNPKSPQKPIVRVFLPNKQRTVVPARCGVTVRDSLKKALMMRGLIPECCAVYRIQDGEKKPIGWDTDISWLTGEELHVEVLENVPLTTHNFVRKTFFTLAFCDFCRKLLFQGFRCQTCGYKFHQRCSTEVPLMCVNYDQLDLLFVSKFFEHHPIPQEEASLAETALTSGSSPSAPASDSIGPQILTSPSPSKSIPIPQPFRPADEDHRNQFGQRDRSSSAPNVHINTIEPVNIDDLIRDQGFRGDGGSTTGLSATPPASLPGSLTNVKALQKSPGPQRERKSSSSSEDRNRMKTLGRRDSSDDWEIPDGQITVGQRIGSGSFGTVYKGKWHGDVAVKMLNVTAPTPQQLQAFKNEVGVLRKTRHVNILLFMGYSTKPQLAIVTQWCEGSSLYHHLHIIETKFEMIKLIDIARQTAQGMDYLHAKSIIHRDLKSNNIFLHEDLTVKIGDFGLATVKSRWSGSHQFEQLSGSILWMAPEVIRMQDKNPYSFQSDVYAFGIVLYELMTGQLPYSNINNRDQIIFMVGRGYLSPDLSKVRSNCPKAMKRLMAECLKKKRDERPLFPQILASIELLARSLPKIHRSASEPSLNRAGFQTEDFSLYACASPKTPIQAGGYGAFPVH

Cc1ccc2c(Nc3cccc(Cl)c3F)nccc2c1NC(=O)c1csc2c(N)ncnc12 [HM95573, reference compound]
AUClast [1, 5]: 110760 ± 9636 ng·h/mL | Cmax [1, 5]: 4710 ± 806 ng/mL | T1/2 [1, 5]: 9.57 ± 0.58 h | Tmax [1, 5]: 1.67 ± 0.58 h | AUClast [2, 6]: 13080 ± 6254 ng·h/mL | Cmax [2, 6]: 989 ± 411 ng/mL | T1/2 [2, 6]: 8.43 ± 1.76 h | Tmax [2, 6]: 1.33 ± 0.58 h

Cc1ccc2c(Nc3cccc(Cl)c3F)nccc2c1NC(=O)c1cccc2c(N)ncnc12 [Compound 1, 4-amino-N-(1-((3-chloro-2-fluorophenyl)amino)-6-methylisoquinolin-5-yl)quinazoline-8-carboxamide]
IC50 (wild-type BRAF enzyme): 18.7 ± 2.71 nM | IC50 [3]: 71.3 ± 5.5 nM | IC50 [4]: 29.3 ± 2.3 nM | Conclusion on pharmacokinetics in mice ([1]; mice after PO administration): Conclusion: compound 1 of the present invention has a high maximum plasma concentration and a high exposure in mice after PO administration. | AUC(0-t) [1, 7]: 172000 ± 18300 ng·h/mL | half-life [1, 7]: 8.33 ± 0.95 h | Cmax ([1]; mouse, whole blood (dried blood spots), female Balb/c mice, PO, 10 mg/kg, DBS samples, read-out: Cmax): 8240 ± 586 ng/mL | Tmax ([1]; mouse, whole blood (dried blood spots), female Balb/c mice, PO, 10 mg/kg, DBS samples, read-out: Tmax): 1.67 ± 0.58 h | AUC(0-t) [2, 8]: 31000 ± 4240 ng·h/mL | half-life [2, 8]: 15.4 ± 4.1 h | Cmax ([2]; dog, male Beagle dogs, PO, 2.5 mg/kg, plasma, read-out: Cmax): 1800 ± 127 ng/mL | Tmax ([2]; dog, male Beagle dogs, PO, 2.5 mg/kg, plasma, read-out: Tmax): 1 h | Conclusion on pharmacokinetics in dogs ([2]; dogs after PO administration): Conclusion: Compound 1 of the present invention has a high maximum plasma concentration, high exposure, long half-life and good overall PK properties in dogs after PO administration.

Cc1ccc2c(Nc3cccc(Cl)c3F)nccc2c1NC(=O)c1ccc(F)c2c(N)ncnc12 [Compound 93, 4-amino-N-(1-((3-chloro-2-fluorophenyl)amino)-6-methylisoquinolin-5-yl)-5-fluoroquinazoline-8-carboxamide]
IC50 (wild-type BRAF enzyme): 13.5 ± 1.02 nM | IC50 [3]: 62.9 ± 11.3 nM | IC50 [4]: 61.7 ± 3.6 nM

Cc1ccc2c(Nc3ccc(F)cc3F)nccc2c1NC(=O)c1cccc2c(N)ncnc12 [Compound 67, 4-amino-N-(1-((2,4-difluorophenyl)amino)-6-methylisoquinolin-5-yl)quinazoline-8-carboxamide]
IC50 (wild-type BRAF enzyme): 13.2 ± 1.67 nM | IC50 [3]: 56.7 ± 9.3 nM | IC50 [4]: 184 ± 16.9 nM

Cc1ccc2c(Nc3cc(F)c(F)cc3F)nccc2c1NC(=O)c1cccc2c(N)ncnc12 [Compound 90, 4-amino-N-(6-methyl-1-((2,4,5-trifluorophenyl)amino)isoquinolin-5-yl)quinazoline-8-carboxamide]
IC50 (wild-type BRAF enzyme): 26.5 ± 2.18 nM | IC50 [3]: 118 ± 12.6 nM | IC50 [4]: 74 ± 6.3 nM

Cc1ccc2c(Nc3cc(Cl)ccc3F)nccc2c1NC(=O)c1cccc2c(N)ncnc12 [Compound 73, 4-amino-N-(1-((5-chloro-2-fluorophenyl)amino)-6-methylisoquinolin-5-yl)quinazoline-8-carboxamide]
IC50 (wild-type BRAF enzyme): 36.2 ± 16.5 nM | IC50 [3]: 59.6 ± 2.2 nM | IC50 [4]: 109 ± 22.8 nM
